Experimental data published in patent US20240101971A1 (Biogen MA Inc., priority 2021, published 2024).
Counter-ions that a name gives are not always drawn.

Columns and labels:
suspension HEK293 cells [1] = assay: FACS analysis (propidium iodide) of cell cycle phase of non-transfected suspension HEK293 cultures; assay type: cell-based; details: for cell synchronization, cell cycle phase by FACS: 24 hours with agent, non-transfected suspension HEK293 cultures, FIG. 2A
Experimental: Cell cycle phase of non-transfected, suspension HEK293 cultures was evaluated using fluorescence activated cell sorting (FACS). Suspension HEK293 cultures were grown in shake flasks for 24 hours with cycle arresting agents (aphidicolin, caffeine, colcemid, colchicine, flavopiridol, hydroxyurea, thymidine, trichostatin A, and vinblastine sulfate) prior to sampling for FACS analysis using propidium iodide (PI), which binds to DNA. Light intensity is indicative of the relative quantity of DNA present in a cell, which is a measure of cell phase. Forward scatter indicates the a size of a cell, while side scatter indicates the a size of intracellular components. Fluorescence of PI was measured using an excitation of 493 nm and emission of 646 nm.

suspension HEK293 cells [2] = assay: rAAV production at manufacturing scale, batch and fed batch bioreactors, suspension HEK293 cells, Payload A; assay type: cell-based; details: added 0.5 hours post-transfection
Experimental: Scalability of microtubule destabilizing agents (colcemid and colchicine) for production of rAAV was also assessed in batch bioreactors and larger volume fed batch bioreactors for manufacturing scale. Suspension HEK293 cells were transiently transfected with plasmids encoding Payload A flanked by an ITR on either side, at least one Rep polypeptide, at least one Cap polypeptide, and at least one helper polypeptide, colcemid was added at 0.5 hours post-transfection, and cells were cultured in 3-liter batch bioreactors or 250-liter fed bioreactors for a period of time e.g., several days prior to sampling.

Structure (SMILES) | cell synchronization, cell cycle phase by FACS (suspension HEK293 cells [1]) | rAAV particle titer relative to controls (suspension HEK293 cells [2]; 3-liter batch bioreactors, FIG. 8A) | rAAV particle titer relative to controls (suspension HEK293 cells [2]; 250-liter fed bioreactors, FIG. 8B-8C) | cell cycle arrest, phase (suspension HEK293 cells [1]; suspension HEK293 cell cultures, FIG. 2B)
COc1cc2c(c(OC)c1OC)-c1ccc(OC)c(=O)cc1[C@@H](NC(C)=O)CC2 [colchicine, (S)—N-(5,6,7,9-tetrahydro-1,2,3,10-tetramethoxy-9-oxobenzo[a]heptalen-7-yl)acetamide] | G2 phase |  |  | 
CN[C@H]1CCc2cc(OC)c(OC)c(OC)c2-c2ccc(OC)c(=O)cc21 [colcemid, N-deacetyl-N-methylcolchicine] | G2 phase | increase | increase | G2/M phase
CC[C@]1(O)C[C@H]2C[N@](CCc3c([nH]c4ccccc34)[C@@](C(=O)OC)(c3cc4c(cc3OC)N(C)[C@H]3[C@@](O)(C(=O)OC)[C@H](OC(C)=O)[C@]5(CC)C=CCN6CC[C@]43[C@@H]65)C2)C1 [vinblastine sulfate, vincaleukoblastine] | G2 phase |  |  | 
